Where a name gives a salt, the structure may show the parent alone. Read-outs that look alike come from different tables or passages of the source.
Tested on: Acinetobacter baumannii ATCC17961
Assay: Antimicrobial susceptibility testing: 90% growth inhibitory concentration (IC90) determination, Iso-Sensitest broth
Type: cell-based
Procedure, shortened: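 Growth at OD600 was monitored every 20 min for 16 h at 35±2 °C, with bacteria inoculated at ~5×10^(5) CFU/ml into Iso-Sensitest medium. Compounds were tested as 10-point twofold dilutions (e.g. 10–0.02 μM final). The 90% inhibitory concentration comes from the log-phase growth.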

[1] = Acinetobacter baumannii, ATCC17961, 90% growth inhibitory concentration, Acinetobacter baumannii ATCC17961, Iso-Sensitest broth, read-out: ATCC 17961 IC90
[2] = Acinetobacter baumannii, ATCC17961, read-out: ATCC 17961 IC90

| Compound | IC90 [1] [nM] | also measured |
| --- | --- | --- |
| Cn1c(-c2ccc(OCC#N)c(F)c2F)cnc1C(=O)Nc1ccc(C(=O)N2CCN(CCNC(=O)[C@H]3CCCN3)CC2)c(Cl)c1 [Example 213, (R)-N-(3-chloro-4-(4-(2-(pyrrolidine-2-carboxamido)ethyl)piperazine-1-carbonyl)phenyl)-5-(4-(cyanomethoxy)-2,3-difluorophenyl)-1-methyl-1H-imidazole-2-carboxamide 2,2,2-trifluoroacetate] | 100 | – |
| Cn1c(-c2ccc(OCF)cc2F)cnc1C(=O)Nc1ccc(C(=O)N2CCN(C(=O)C3CCNCC3)CC2)c(Cl)c1 [Example 25, N-(3-chloro-4-(4-(piperidine-4-carbonyl)piperazine-l-carbonyl)phenyl)-5-(2-fluoro-4-(fluoromethoxy)phenyl)-1-methyl-1H-imidazole-2-carboxamide formate] | – | IC90 [2]: 60 nM |
| Cn1c(-c2ccc(OC(F)F)c(F)c2Cl)cnc1C(=O)Nc1ccc(C(=O)N2CCN(C(=O)C[C@@H]3CCNC3)CC2)c(Cl)c1 [Example 147, 5-[2-chloro-4-(difluoromethoxy)-3-fluoro-phenyl]-N-[3-chloro-4-[4-[2-[(3S)-pyrrolidin-3-yl]acetyl]piperazine-1-carbonyl]phenyl]-1-methyl-imidazole-2-carboxamide formate] | 40 | – |
| Cn1c(-c2ccc(OCC#N)c(Cl)c2F)cnc1C(=O)Nc1ccc(C(=O)N2CCN(C(=O)C3CCNCC3)CC2)c(Cl)c1 [Example 268, 5-[3-chloro-4-(cyanomethoxy)-2-fluoro-phenyl]-N-[3-chloro-4-[4-(piperidine-4-carbonyl)piperazine-1-carbonyl]phenyl]-1-methyl-imidazole-2-carboxamide] | 70 | – |
| COc1ccc(-c2cnc(C(=O)Nc3ccc(C(=O)N4CCC(NS(=O)(=O)CCN)CC4)c(Cl)c3)n2C)c(F)c1F [Example 236, N-[4-[4-(2-aminoethylsulfonylami-no)piperidine-1-carbonyl]-3-chloro-phenyl]-5-(2,3-difluoro-4-methoxy-phenyl)-1-methyl-imidazole-2-carboxamide] | 60 | – |
| COc1ccc(-c2cnc(C(=O)Nc3ccc(C(=O)N4CCC(NC(=O)CCOCCN)C4)c(Cl)c3)n2C)c(F)c1F (stereo not drawn) [Example 111, N-[4-[3-[3-(2-aminoethoxy)propanoylamino]pyrrolidine-1-carbonyl]-3-chloro-phenyl]-5-(2,3-difluoro-4-methoxy-phenyl)-1-methyl-imidazole-2-carboxamide formate] | 300 | – |
| COc1ccc(-c2cnc(C(=O)Nc3ccc(C(=O)N4CCC(CCN)CC4)c(Cl)c3)n2C)c(F)c1F [Example 17, N-[4-[4-(2-Aminoethyl)piperidine-1-carbonyl]-3-chloro-phenyl]-5-(2,3-difluoro-4-methoxy-phenyl)-1-methyl-imidazole-2-carboxamide formate] | – | IC90 [2]: 30 nM |
| Cn1c(-c2ccc(OC(F)F)c(F)c2F)cnc1C(=O)Nc1ccc(C(=O)N2CCC(C(=O)NCC3CNC3)CC2)c(Cl)c1 [Example 245, N-(Azetidin-3-ylmethyl)-1-[2-chloro-4-[[5-[4-(difluoromethoxy)-2,3-difluoro-phenyl]-1-methyl-imidazole-2-carbonyl]amino]benzoyl]piperidine-4-carboxamide trifluoroacetate] | – | IC90 [2]: 30 nM |
| COc1ccc(-c2cnc(C(=O)Nc3ccc(C(=O)N4CC(NC(=O)CN(C)C)C4)c(Cl)c3)n2C)c(F)c1F [Example 189, N-[3-chloro-4-[3-[[2-(dimethylamino)acetyl]amino]azetidine-1-carbonyl]phenyl]-5-(2,3-difluoro-4-methoxy-phenyl)-1-methyl-imidazole-2-carboxamide formate] | 140 | – |
| Cn1c(-c2ccc(OCC#N)c(F)c2F)cnc1C(=O)Nc1ccc(C(=O)N2CCN(C(=O)N[C@H]3CNC[C@@H]3O)CC2)c(Cl)c1 [Example 282] | 60 | – |
| COc1ccc(-c2cnc(C(=O)Nc3ccc(C(=O)N4CCN(C(=O)C5CCN(S(=O)(=O)CCN)CC5)CC4)c(Cl)c3)n2C)c(F)c1F [Example 242, N-[4-[4-[1-(2-aminoethylsulfonyl)pipe-ridine-4-carbonyl]piperazine-1-carbonyl]-3-chloro-phenyl]-5-(2,3-difluoro-4-methoxy-phenyl)-1-methyl-imidazole-2-carboxamide] | – | IC90 (90% growth inhibitory concentration, Acinetobacter baumannii ATCC17961, Iso-Sensitest broth, read-out: ATCC 17961 IC90): 90 nM |
| CN(C)CCN1CCN(C(=O)c2ccc(NC(=O)c3ncc(-c4ccc(Oc5ccncc5)c(F)c4F)n3C)cc2Cl)CC1 [Example 272, N-[3-chloro-4-[4-[2-(dimethylamino)ethyl]piperazine-1-carbonyl]phenyl]-5-[2,3-difluoro-4-(4-pyridyloxy)phenyl]-1-methyl-imidazole-2-carboxamide trifluoroacetate] | 880 | – |
| Cn1c(-c2ccc(OC(F)F)c(F)c2F)cnc1C(=O)Nc1ccc(C(=O)N2CCN(C(=O)C3CCN(C(=O)C4CNC4)CC3)CC2)c(Cl)c1 [Example 174, N-[4-[4-[1-(azetidine-3-carbonyl)piperidine-4-carbonyl]piperazine-1-carbonyl]-3-chloro-phenyl]-5-[4-(difluoromethoxy)-2,3-difluoro-phenyl]-1-methyl-imidazole-2-carboxamide formate] | 70 | – |
| Cn1c(-c2ccc(OCF)c(F)c2F)cnc1C(=O)Nc1ccc(C(=O)N2CCC(C(=O)NC3CCNCC3)CC2)c(Cl)c1 [Example 89, 1-(2-chloro-4-(5-(2,3-difluoro-4-(fluoromethoxy)phenyl)-1-methyl-1H-imidazole-2-carboxamido)benzoyl)-N-(piperidin-4-yl)piperidine-4-carboxamide 2,2,2-trifluoroacetate] | 50 | – |

Second part, led by results:

| IC90 [1] [nM] | Compound | also measured |
| --- | --- | --- |
| 170 | COc1ccc(-c2cnc(C(=O)Nc3ccc(C(=O)N4CCN(C(=O)C5CNC(=O)N5)CC4)c(Cl)c3)n2C)c(F)c1F (stereo not drawn) [Example 133, N-[3-chloro-4-[4-(2-oxoimidazolidine-4-carbonyl)piperazine-1-carbonyl]phenyl]-5-(2,3-difluoro-4-methoxy-phenyl)-1-methyl-imidazole-2-carboxamide] | – |
| 40 | Cn1c(-c2ccc(OCF)c(F)c2F)cnc1C(=O)Nc1ccc(C(=O)N2CCN(C(=O)[C@@H]3CCNC3)CC2)c(Cl)c1 [Example 155, N-[3-chloro-4-[4-[(3R)-pyrrolidine-3-carbonyl]piperazine-1-carbonyl]phenyl]-5-[2,3-difluoro-4-(fluoromethoxy)phenyl]-1-methyl-imidazole-2-carboxamide formate] | – |
| 90 | COc1ccc(-c2cnc(C(=O)Nc3ccc(C(=O)N4CCN(C(=O)[C@@H]5C[C@](C)(O)CN5)CC4)c(Cl)c3)n2C)c(F)c1F [Example 232, N-[3-chloro-4-[4-[(2S,4S)-4-hydroxy-4-methyl-pyrrolidine-2-carbonyl]piperazine-1-carbonyl]phenyl]-5-(2,3-difluoro-4-methoxy-phenyl)-1-methyl-imidazole-2-carboxamide formate] | – |
| 100 | COc1ccc(-c2cnc(C(=O)Nc3ccc(C(=O)N4CCN(C(=O)CCOCCN)CC4)c(Cl)c3)n2C)c(F)c1F [Example 246, N-[4-[4-[3-(2-aminoethoxy)propanoyl]piperazine-1-carbonyl]-3-chloro-phenyl]-5-(2,3-difluoro-4-methoxy-phenyl)-1-methyl-imidazole-2-carboxamide formate] | – |
| 70 | COc1ccc(-c2cnc(C(=O)Nc3ccc(C(=O)N4CCN(C(=O)C[C@@H]5CCCN5)CC4)c(Cl)c3)n2C)c(F)c1F [Example 154, N-[3-chloro-4-[4-[2-[(2S)-pyrrolidin-2-yl]acetyl]piperazine-1-carbonyl]phenyl]-5-(2,3-difluoro-4-methoxy-phenyl)-1-methyl-imidazole-2-carboxamide formate] | – |
| 40 | COc1ccc(-c2cnc(C(=O)Nc3ccc(C(=O)N4CCN(C(=O)CN5CCC(O)C5)CC4)c(Cl)c3)n2C)c(F)c1F (stereo not drawn) [Example 294, N-[3-chloro-4-[4-[2-(3-hydroxypyrrolidin-1-yl)acetyl]piperazine-1-carbonyl]phenyl]-5-(2,3-difluoro-4-methoxy-phenyl)-1-methyl-imidazole-2-carboxamide formate] | – |
| 70 | Cn1c(-c2ccc(OCC#N)c(F)c2F)cnc1C(=O)Nc1ccc(C(=O)N2CCN(C(=O)C3CNCC(O)C3)CC2)c(Cl)c1 (stereo not drawn) [Example 214, N-(3-chloro-4-(4-(5-hydroxypiperidine-3-carbonyl)piperazine-1-carbonyl)phenyl)-5-(4-(cyanomethoxy)-2,3-difluorophenyl)-1-methyl-1H-imidazole-2-carboxamide 2,2,2-trifluoroacetate] | – |
| 100 | COc1ccc(-c2cnc(C(=O)Nc3ccc(C(=O)N4CCN(C(=O)C5CC(C(N)=O)C5)CC4)c(Cl)c3)n2C)c(F)c1F (stereo not drawn) [Example 280, N-(4-(4-(3-carbamoylcyclobutane-1-carbonyl)piperazine-1-carbonyl)-3-chlorophenyl)-5-(2,3-difluoro-4-methoxyphenyl)-1-methyl-1H-imidazole-2-carboxamide] | – |
| 70 | COc1ccc(-c2cnc(C(=O)Nc3ccc(C(=O)N4CCC(C(=O)N5CC(CN)C5)CC4)c(Cl)c3)n2C)c(F)c1F [Example 34, N-[4-[4-[3-(aminomethyl)azetidine-1-carbonyl]piperidine-1-carbonyl]-3-chloro-phenyl]-5-(2,3-difluoro-4-methoxy-phenyl)-1-methyl-imidazole-2-carboxamidetrifluoroacetate] | – |
| 50 | COc1ccc(-c2cnc(C(=O)Nc3ccc(C(=O)N4CCN(C(=O)C[C@@H]5CCNC5)CC4)c(Cl)c3)n2C)c(F)c1F [Example 194, N-[3-chloro-4-[4-[2-[(3S)-pyrrolidin-3-yl]acetyl]piperazine-1-carbonyl]phenyl]-5-(2,3-difluoro-4-methoxy-phenyl)-1-methyl-imidazole-2-carboxamide formate] | – |
